Experimental data reported in patent US12624122B2, “Affinity maturated TAG72 specific single chain antibodies” (H. Lee Moffitt Cancer Center and Research Institute, Inc., priority 2016, dated 2026).

Tests used:
Assay type in all cases: cell-based
MDA-231 cells = experiment: flow cytometry apoptosis (annexin V and PI), MDA-231 cells with human CD8 T cells
Source text: (§1) FIGS. 5 to 96 are flow cytometry plots testing the disclosed bispecific antibodies. Table 1 summarizes flow cytometry results measuring apoptosis with annexin V and PI in gated populations of MCF-7 and MDA-231 cells treated with human CD8 T cells with bi-specific antibodies plus or minus the photosensitizing compound verteporfin.

[1] = system: programmed cell death ligand 1 (PDL1); experiment: tumor cell PDL1 surface expression
MCF-7 cells = experiment: flow cytometry apoptosis (annexin V and PI), MCF-7 cells with human CD8 T cells
Source text: as §1

## verteporfin [Vs]
MDA-231 cells; CD8 + Vs (1 μM)
  Control group (%) viable cells: (56.3) %
MDA-231 cells; CD8 + Vs (2 μM)
  Control group (%) viable cells: (57.4) %
MDA-231 cells; CD8 + Vs (5 μM)
  Control group (%) viable cells: (55.3) %
[1]
  tumor cell PDL1 surface expression: reduce tumor cell programmed cell death ligand 1 (PDL1) surface expression
MCF-7 cells; CD8 + Vs (1 μM)
  Control group (%) viable cells: (19) %
MCF-7 cells; CD8 + Vs (2 μM)
  Control group (%) viable cells: (13.3) %
MCF-7 cells; CD8 + Vs (5 μM)
  Control group (%) viable cells: (7.51) %
